Here are results for 26 molecules from patent US12503436B2, “Compounds and compositions for treating conditions associated with STING activity” (NOVARTIS PHARMA AG, priority 2021, dated 2025).

pEC50: −log10 of the molar value.

The target in this assay is STING (Homo sapiens, UniProt Q86WV6, G230A/H232R/R293Q/R71H). As to the kind of experiment: STING reporter assay in THP1-Dual KO-IFNAR2 cells (2′3′cGAMP stimulation, luciferase reporter). The format is cell-based. The settings on record: 15 μM 2′3′cGAMP stimulation, 24 h, read-out: Pharmaron, THP1_IFNAR2 STING 24 h Luci Normalized: GeoMean EC50. In short, it runs like this: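 EC50 from secreted luciferase (QUANTI-Luc Plus luminescence of supernatant) after 24 h at 37 °C, 5% CO2. Cells: THP1-Dual KO-IFNAR2, treated with compound (0.0017-100 μM final) plus lipofected 2′3′cGAMP at 15 μM final.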
STING, sequence (Q86WV6 whole entry R71H/G230A/H232R/R293Q): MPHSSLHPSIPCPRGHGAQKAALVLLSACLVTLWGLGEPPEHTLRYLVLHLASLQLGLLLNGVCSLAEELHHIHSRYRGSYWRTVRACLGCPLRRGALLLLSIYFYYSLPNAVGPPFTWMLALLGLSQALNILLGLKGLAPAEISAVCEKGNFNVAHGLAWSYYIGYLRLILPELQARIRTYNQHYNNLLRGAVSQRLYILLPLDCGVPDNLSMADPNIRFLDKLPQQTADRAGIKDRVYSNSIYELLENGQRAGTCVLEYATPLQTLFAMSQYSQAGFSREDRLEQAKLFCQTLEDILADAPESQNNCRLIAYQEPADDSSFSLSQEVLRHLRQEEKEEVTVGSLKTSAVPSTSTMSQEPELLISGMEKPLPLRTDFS
For orientation: In a reporter assay the amount or activity of a reporter protein is the signal.

Consider `CC1OC(C)C1C(=O)Nc1c[nH]c2ccc(OCCc3ccc(C(F)(F)F)cc3)cc12` (centres unmarked) [Compound 525, 2,4-dimethyl-N-(5-(4-(trifluoromethyl)phenethoxy)-1H-indol-3-yl)oxetane-3-carboxamide], for which the pEC50 – broadly, −log10 of the EC50, conventionally taken in molar units – was 6.00 to 6.70. For `O=C(Nc1c[nH]c2ccc(CCOc3ccc(C(F)(F)F)cc3)cc12)C1(F)CC1` [Compound 400, 1-fluoro-N-(5-(2-(4-(trifluoromethyl)phenoxy)ethyl)-1H-indol-3-yl)cyclopropane-1-carboxamide] the value was 6.00 to 6.70. For `CC(=O)Nc1c[nH]c2ccc(CCOc3cccc(CC(F)(F)F)c3)cc12` [Compound 441, N-(5-{2-[3-(2,2,2-trifluoroethyl)phenoxy]ethyl}-1H-indol-3-yl)acetamide] the value was 6.70 to 7.40; for `CC(=O)Nc1c[nH]c2ccc(CCOc3ccc(C(F)(F)F)cc3)cc12` [Compound 127, N-(5-(2-(4-(trifluoromethyl)phenoxy)ethyl)-1H-indol-3-yl)acetamide], 6.70 to 7.40; for `C[C@H]1C[C@H](C(=O)Nc2c[nH]c3ccc(CCOc4ccc(C(F)(F)F)cc4)cc23)C1` [Compound 392, trans-3-methyl-N-(5-(2-(4-(trifluoromethyl)phenoxy)ethyl)-1H-indol-3-yl)cyclobutane-1-carboxamide], 6.00 to 6.70. The value for `CC(=O)Nc1c[nH]c2ccc(OCC3CCC(C(F)(F)F)CC3)cc12` (centres unmarked) [Compound 472, N-(5-((4-(trifluoromethyl)cyclohexyl)methoxy)-1H-indol-3-yl)acetamide] was 6.00 to 6.70; that for `O=C(Nc1c[nH]c2ccc(O[C@H]3C[C@@H](c4ccc(C(F)(F)F)cc4)C3)cc12)C1(C(F)(F)F)CC1` [Compound 353, 1-(trifluoromethyl)-N-(5-(cis-3-(4-(trifluoromethyl)phenyl)cyclobutoxy)-1H-indol-3-yl)cyclopropane-1-carboxamide] was 6.00 to 6.70.

With `CC(=O)Nc1c[nH]c2cc(F)c(CCOc3ccc(C(F)(F)F)cc3)c(F)c12` [Compound 375, N-(4,6-difluoro-5-(2-(4-(trifluoromethyl)phenoxy)ethyl)-1H-indol-3-yl)acetamide], the pEC50 is 5.30 to 6.00. For `CC(=O)Nc1c[nH]c2ccc(CCOc3ccc4ncccc4c3)cc12` [Compound 526, N-(5-(2-(quinolin-6-yloxy)ethyl)-1H-indol-3-yl)acetamide] the value was 4.00 to 5.30. The value for `CC(=O)Nc1c[nH]c2ccc(OCCC3CCN(c4ccc(C(F)(F)F)cc4)CC3)cc12` [Compound 104, N-(5-(2-(1-(4-(trifluoromethyl)phenyl)piperidin-4-yl)ethoxy)-1H-indol-3-yl)acetamide] was 6.00 to 6.70; that for `CC1(F)CC(C(=O)Nc2c[nH]c3ccc(OCCc4ccc(C(F)(F)F)cc4)cc23)C1` (centres unmarked) [Compound 380, 3-fluoro-3-methyl-N-(5-(4-(trifluoromethyl)phenethoxy)-1H-indol-3-yl)cyclobutane-1-carboxamide] was 6.70 to 7.40.

For `COCC(=O)Nc1c[nH]c2ccc(O[C@H]3C[C@@H](c4ccc(C(F)(F)F)cc4)C3)cc12` [Compound 260, 2-methoxy-N-(5-(cis-3-(4-(trifluoromethyl)phenyl)cyclobutoxy)-1H-indol-3-yl)acetamide], the pEC50 is 6.00 to 6.70. Regarding `C[C@H]1C[C@@H](C(=O)Nc2c[nH]c3ccc(OCCc4ccc(C(F)(F)F)cc4)cc23)C1` [Compound 162, cis-3-methyl-N-(5-(4-(trifluoromethyl)phenethoxy)-1H-indol-3-yl)cyclobutane-1-carboxamide], the pEC50 is 6.70 to 7.40. Regarding `CC(=O)Nc1c[nH]c2ccc(CCOc3ccccc3C3(C)CCN(CC(F)(F)F)CC3)cc12` [Compound 208, N-(5-(2-(2-(4-methyl-1-(2,2,2-trifluoroethyl)piperidin-4-yl)phenoxy)ethyl)-1H-indol-3-yl)acetamide], the pEC50 is 5.30 to 6.00. For `CC(=O)Nc1c[nH]c2ccc(OCC[C@H]3CC[C@](O)(C(F)(F)F)CC3)cc12` [Compound 501, N-(5-(2-(cis-4-hydroxy-4-(trifluoromethyl)cyclohexyl)ethoxy)-1H-indol-3-yl)acetamide] the value was 5.30 to 6.00; for `CC(=O)Nc1c[nH]c2ccc(OCC[C@@H]3C[C@@H]4CN(CC(F)F)C[C@@H]4C3)cc12` [Compound 313, N-(5-(2-((3aR,5r,6aS)-2-(2,2-difluoroethyl)octahydrocyclopenta[c]pyrrol-5-yl)ethoxy)-1H-indol-3-yl)acetamide], 5.30 to 6.00; for `CC(=O)Nc1c[nH]c2ccc(CO[C@H]3C[C@H](c4ccc(C(F)(F)F)cc4)C3)cc12` [Compound 482, N-(5-((trans-3-(4-(trifluoromethyl)phenyl)cyclobutoxy)methyl)-1H-indol-3-yl)acetamide], 6.70 to 7.40. For `CC(=O)Nc1c[nH]c2ccc(Cc3ccc(C(F)(F)F)cc3)cc12` [Compound 128, N-(5-(4-(trifluoromethyl)benzyl)-1H-indol-3-yl)acetamide] the value was 6.00 to 6.70; for `O=C(Nc1c[nH]c2ccc(CCOc3ccc(C(F)(F)F)cc3)cc12)C1(C(F)(F)F)CC1` [Compound 387, 1-(trifluoromethyl)-N-(5-(2-(4-(trifluoromethyl)phenoxy)ethyl)-1H-indol-3-yl)cyclopropane-1-carboxamide], 6.00 to 6.70; for `CC1(C(=O)Nc2c[nH]c3ccc(O[C@H]4C[C@@H](c5ccc(C(F)(F)F)cc5)C4)cc23)COC1` [Compound 378, 3-methyl-N-(5-(cis-3-(4-(trifluoromethyl)phenyl)cyclobutoxy)-1H-indol-3-yl)oxetane-3-carboxamide], 6.00 to 6.70.

As to `CC(=O)Nc1c[nH]c2ccc(OCC(C)(C)C3CCN(CC(F)(F)F)CC3)cc12` [Compound 108, N-(5-(2-methyl-2-(1-(2,2,2-trifluoroethyl)piperidin-4-yl)propoxy)-1H-indol-3-yl)acetamide], the negative logarithm of the EC50 (pEC50) is 4.00 to 5.30. For `CC1(C)CC1C(=O)Nc1c[nH]c2ccc(CCOc3ccc(C(F)(F)F)cc3)cc12` (centres unmarked) [Compound 397, 2,2-dimethyl-N-(5-(2-(4-(trifluoromethyl)phenoxy)ethyl)-1H-indol-3-yl)cyclopropane-1-carboxamide] the value was 6.00 to 6.70; for `CC1(C(=O)Nc2c[nH]c3ccc(O[C@H]4C[C@@H](c5ccc(C(F)(F)F)cc5)C4)cc23)CC1` [Compound 263, 1-methyl-N-(5-(cis-3-(4-(trifluoromethyl)phenyl)cyclobutoxy)-1H-indol-3-yl)cyclopropane-1-carboxamide], 6.00 to 6.70; for `O=C(Nc1c[nH]c2ccc(OCCc3ccc(C(F)(F)F)cc3)cc12)C1CN(CC(F)F)C1` [Compound 149, 1-(2,2-difluoroethyl)-N-(5-(4-(trifluoromethyl)phenethoxy)-1H-indol-3-yl)azetidine-3-carboxamide], 6.70 to 7.40. For `CC(=O)Nc1c[nH]c2ccc(OCC[C@H]3CC[C@@H](C(F)(F)F)CC3)cc12` (single isomer, unassigned) [Compound 454, N-(5-(2-(cis-4-(trifluoromethyl)cyclohexyl)ethoxy)-1H-indol-3-yl)acetamide] the value was 6.00 to 6.70; for `O=C(Nc1c[nH]c2ccc(OCCc3ccc(C(F)(F)F)cc3)cc12)C1CC(F)(F)C1` [Compound 249, 3,3-difluoro-N-(5-(4-(trifluoromethyl)phenethoxy)-1H-indol-3-yl)cyclobutane-1-carboxamide], 6.00 to 6.70.
